Results published in patent publication US3968251A, “Arylacetylene compounds as antithrombotic agents” (Eli Lilly and Company, priority 1975, dated 1976).
Where two headings read alike, the source gives them in different places.

Test system: collagen-induced platelet aggregation
Assay: collagen-induced platelet aggregation after oral dosing (method of Herrmann, et al., 139, 548 (1972))
Format: in vivo, Guinea pig
Conditions: for inhibition at 25 mg/kg: Cavia porcellus, Platelet, po, oral 25 mg/kg, guinea pig, read-out: Percent Inhibition of Collagen-Induced Platelet Aggregation
Method: Exp. Biol. Med., 139, 548 (1972).
The effect of (2'-fluoro-4-biphenyl)acetylene on collagen-induced platelet aggregation was tested by the method of Hermann, et al., Proc. Soc. Exp. Biol. Med., 139, 548 (1972). Guinea pigs weighing 300-400 g, were used. The compound was administered by oral dosing. At time intervals after dosing, blood samples were obtained for assessing platelet function. The collagen used to induce platelet aggregation was prepared from a stock solution obtained by solubilizing Sigma bovine Achilles Tendon with acetic acid. […] Each day 0.4 ml of 1 M aqueous hydroxide was added to a 1.0-ml aliquot of the stock solution, followed by further dilution with saline to yield the appropriate dilutions for use.

SMILES: C#Cc1ccc(-c2ccccc2F)cc1 [(2'-fluoro-4-biphenyl)acetylene]
- duration of activity (in words) (20 hours after oral dosing): activity still was observed 20 hours after dosing, indicating a long duration of activity
- inhibition at 25 mg/kg (1.5 h, 90 min. after dosing, collagen dilution 1:4): 13%
- inhibition at 25 mg/kg (1.5 h, 90 min. after dosing, collagen dilution 1:16, significant at P=0.05): 35%
- inhibition at 25 mg/kg (1.5 h, 90 min. after dosing, collagen dilution 1:32, significant at P=0.01): 81%
- inhibition at 25 mg/kg (3 h, 3 hrs. after dosing, collagen dilution 1:4, significant at P=0.01): 44%
- inhibition at 25 mg/kg (3 h, 3 hrs. after dosing, collagen dilution 1:16, significant at P=0.01): 69%
- inhibition at 25 mg/kg (3 h, 3 hrs. after dosing, collagen dilution 1:32, significant at P=0.01): 86%
- inhibition at 25 mg/kg (6 h, 6 hrs. after dosing, collagen dilution 1:4): 16%
- inhibition at 25 mg/kg (6 h, 6 hrs. after dosing, collagen dilution 1:16, significant at P=0.05): 42%
- inhibition at 25 mg/kg (6 h, 6 hrs. after dosing, collagen dilution 1:32, significant at P=0.01): 49%
- inhibition at 25 mg/kg (20 h, 20 hrs. after dosing, collagen dilution 1:4): 18%
- inhibition at 25 mg/kg (20 h, 20 hrs. after dosing, collagen dilution 1:16, significant at P=0.01): 62%
- inhibition at 25 mg/kg (20 h, 20 hrs. after dosing, collagen dilution 1:32, significant at P=0.01): 95%
- inhibition of collagen-induced platelet aggregation (in words) (after oral dosing): active inhibitor of collagen-induced platelet aggregation
- inhibition at highest collagen concentration (in words) (highest collagen concentration, after oral dosing): inhibited only at three hours after dosing
- inhibition of weakest collagen challenge (in words) (weakest collagen challenge, after oral dosing): markedly inhibited at all time intervals after oral dosing
